The subject of one experiment is lens explant. Briefly: Mouse lens explant culture (ex vivo PCO mimetic model), αSMA immunofluorescence. It is filed as cell-based. To be noted: 10 mM NAC or 0.5 mM GSH-EE co-incubated with 1 ng/ml TGFβ2, 48 hr. How it is done: The isolated intact lens was rinsed three times with HBSS and then cultured in 12-well-plates with serum-free Medium 199 (ThermoFisher) with 50 unit/ml penicillin streptomycin at 37° C. in 5% CO2 incubator, as described above. The lens explant was cultured following the same procedure as described by a previous report. Tamiya et al., Exp Eye Res 71, 591-597 (2000). In brief, the mouse lens was placed in an anterior-toposterior orientation with the anterior attached to the culture dish. The lens posterior capsule was torn/cut by the tip of extra-fine forceps and then peeled towards anterior capsule and pinned on the plastic culture dish. The lens fiber mass was removed thereafter. The explant was cultured in serum-free MEM medium supplied with 50 unit/ml penicillin streptomycin at 37° C. in 5% CO2 incubator as described above. Only healthy growing explants were used for the described study and any unhealthy looking explants, such as folded explants or those with cell detachment, were discarded.
Cells were placed 24 hr before the treatment and fresh medium was replaced immediately before the treatment. The indicated concentrations of BSO, DMF, NAC, GSH-EE or TGFβ2 were added to fresh medium and incubated at various time intervals as indicated. After treatment time, the cells were harvested after three washes with ice-cold PBS and subjected to immunoblot or other assays as described below. For whole lens culture, the serum-free medium with or without BSO, NAC, GSH-EE or TGFβ2 was incubated immediately after isolation for 48 hr and the whole lens or lens capsule was collected for further analysis. […]
Confocal microscope—All confocal images were collected by a Leica SP8 gSTED confocal microscope equipped with two 3 Hyd SP GaAsP detectors and the AOBS system lasers include a 405 nm, Argon (458, 476, 488, 496, 514 nm), a tunable white light (470 to 670 nm), and a 592 nm STED depletion laser. For proper comparison, each channel of fluorescence was adjusted to the highest sensitivity/intensity but without over saturation from samples with the strongest signal. […]

The next experiment concerns HLE-B3 cells. Put plainly: EMT marker / Wnt-β-catenin immunoblot in human lens epithelial cell line HLE-B3. It is filed as cell-based. The conditions noted are these: for αSMA production after BSO stimulation: HLE-B3 cells co-treated with 10 mM NAC or 0.5 mM GSH-EE and 500 μM BSO, 24 hr; for TGFβ2-mediated αSMA production: HLE-B3 cells, 10 mM NAC or 0.5 mM GSH-EE co-incubated with 1 ng/ml TGFβ2, 24 hr; for BSO-increased Ser9 phosphorylation of GSK-3β / BSO-increased β-catenin expression: cells co-treated with 0.5 mM GSH-EE or 10 mM NAC, BSO 24 hr. How it is done:
Cell Culture—Human lens epithelial cells (HLE-B3) were grown in DMEM medium with 10% fetal bovine serum (FBS), 2 mM glutamine and 50 unit/ml penicillin streptomycin (ThermoFisher, Waltham, Mass.) at 37° C. in a humidified 5% CO2 incubator. For primary porcine lens epithelial cell culture, pig eyes were collected at a local slaughterhouse within two hours of postmortem time, placed on ice and transported to the lab (about 1 hr) for immediate processing. First, the isolated lens was incubated with 2 ml of 0.25% trypsin at 37° C. for 2 min to remove any attached non-lens cells. Then, after a brief rinse with HBSS, the lens capsule was isolated and rinsed three times with HBSS before incubation with 2 ml of 0.5% trypsin for 5 min. 5 ml of complete DMEM medium was added and tissue was disrupted by pipetting up and down 10-15 times with a pipette fitted with a 1000 μl tip. The tissue homogenate was then passed through a 100 μm cell strainer. The cells were collected by low speed centrifugation at 150×g and placed in a 35 mm laminin-coated tissue culture dish with DMEM medium supplied with 10% FBS, 2 mM glutamine and 50 unit/ml penicillin streptomycin (ThernoFisher). The cells were cultured at 37° C. in a humidified incubator with 5% CO2.
Cells were placed 24 hr before the treatment and fresh medium was replaced immediately before the treatment. The indicated concentrations of BSO, DMF, NAC, GSH-EE or TGFβ2 were added to fresh medium and incubated at various time intervals as indicated. After treatment time, the cells were harvested after three washes with ice-cold PBS and subjected to immunoblot or other assays as described below. For whole lens culture, the serum-free medium with or without BSO, NAC, GSH-EE or TGFβ2 was incubated immediately after isolation for 48 hr and the whole lens or lens capsule was collected for further analysis. For lens explant culture, 48 hr after explant culture, various stimulates were used in fresh serum-free medium for an additional 48 hr, and the explant was fixed with 10% formaldehyde for 10 min before immunofluorescence stain, as described below.
The cells, whole lens, lens capsule, and lens fibers were collected and lysed in lysis buffer containing 20 mM Tris pH 7.5, 1 mM EDTA, 1 mM EGTA, 150 mM NaCl, 1% Triton X-100, 2.5 mM sodium pyrophosphate, 1 mM bα-Glycerolphosphate, 1 mM Na3VO4, 1 mg/ml Leupeptin, 1 mM PMSF on ice for 10 min. The protein concentration from the supernatant was determined by protein BCA assay (ThermoFisher). The protein extract was further processed for immunoblot analysis and probed for αSMA, collagen I, vimentin, phosphorylated Smad2, phosphorylated Smad3, phosphorylated GSK-3β and (β-catenin. All data were normalized to the level of GAPDH.
(Immunoblotting shows a protein as a band on a membrane.)

Results on two molecules are retold here after US20200038355A1, “ANTIOXIDANTS FOR USE IN OPHTHALMIC SURGERY” (Case Western Reserve University, priority 2017, published 2020).

Entries after “also recorded” stand apart in the source; their conditions may differ.

With `CC(=O)N[C@@H](CS)C(=O)O` [NAC, N-acetyl cysteine], in the experiment with lens explant, the “TGFβ2-induced αSMA elevation in lens explant” value is recorded as “attenuated; also recorded: completely alleviated”. In addition, in the experiment on HLE-B3 cells, the “αSMA production after BSO stimulation” value was “alleviated; also recorded: completely abolish”, the “TGFβ2-mediated αSMA production” value is given as “alleviated; also recorded: completely block”, the “BSO-increased Ser9 phosphorylation of GSK-3β” value was “attenuate; also recorded: alleviated; also recorded: completely abolished” and the “BSO-increased β-catenin expression” value is “alleviated”. Also, the “inhibitory effect on EMT process compared with GSH-EE” value with HLE-B3 cells (cell culture) is “much higher inhibitory effect than GSH-EE”.

As for `CCOC(=O)CNC(=O)[C@H](CS)NC(=O)CC[C@H](N)C(=O)O` [GSH-EE, glutathione ethyl ester], in the experiment with lens explant, the “TGFβ2-induced αSMA elevation in lens explant” value is given as “partially, but significantly, attenuated”. Further, in the experiment with HLE-B3 cells, the “αSMA production after BSO stimulation” value is “alleviated; also recorded: partially, but significantly, block”; the “TGFβ2-mediated αSMA production” value is “alleviated; also recorded: significantly alleviate”; the “BSO-increased Ser9 phosphorylation of GSK-3β” value is listed as “alleviated”; the “BSO-increased β-catenin expression” value is on record as “attenuate; also recorded: alleviated”.
